# Measured values published in patent US20230278981A1, “DICHLOROPHENOL HSD17B13 INHIBITORS AND USES THEREOF” (INIPHARM, INC., priority 2020, published 2023).
# Target: HSD17B13 (Homo sapiens (Human), UniProt Q7Z5P4)
# Assay: LC/MS estrone detection assay: conversion of estradiol to estrone by HSD17B13
# Assay type: biochemical
# Conditions: 4 μM estradiol, 6 mM NAD+, 30 nM HSD17B13 enzyme (E. coli expressed His-tagged), 2 hours at 26.5° C.
# Experimental: The liquid chromatography/mass spectrometry (LC/MS) estrone detection assay monitors the conversion of estradiol to estrone by HSD17B13. This assay was undertaken in a 96wp format (Eppendorf deep well Plate 96/500) in an 80 μl reaction volume containing: 4 μM of Estradiol (E2; Cayman; Ser. No. 10/006,315), 6 mM NAD+(Sigma; #N0623) and 30 nM HSD17B13 enzyme (in-house; E. coli expressed His-tagged, purified, soluble protein) in a reaction containing […] potassium phosphate buffer pH 7.4, with 0.5% vehicle (DMSO). Reactions were incubated for 2 hours at 26.5° C., and estradiol (E2) conversion to estrone (E1) was quantitated by LC-MS/MS based analyte detection for both E2 and E1 using LCMS grade reagents.
# Reactions were terminated by the addition of two volumes of acetonitrile (MeCN; LCMS grade; CAS #75/05/8) containing deuterated (D4)-E1 used as internal standard (Clear Synth; #CS-T-54273; 500 ng/mL final concentration). Samples were applied to pre-prepared Bond Elut-C18 extraction cartridges (3 mL; Agilent; Ser. No. 12/102,028), washed and eluted in MeCN. Eluates were dried under nitrogen and re-suspended in 60% methanol (LCMS grade methanol; CAS #67/56/1) before submission for analysis. Aqueous linearity for E2 and E1 were included for quantification.
# Analysis of samples was undertaken on a XBridge BEH C18 column (Waters; #186003033) using 0.1% Diethyl Amine in MeCN (mobile phase A; DEA CAS #109-89-7) and 0.1% Diethyl Amine in milli-Q water (mobile phase B) in a 3 min gradient allowing 25% B. Analytes were detected in negative mode using MRM analysis, with E2 having a RT of 1.85 min and E1 having a RT of 2 min. Activity of the enzyme, in the absence of NAD^+, was used to evaluate specificity of conversion. Enzyme activity in the presence of test samples was expressed as a percentage of the uninhibited enzyme activity, and plotted versus inhibitor concentration. Non-linear regression was performed using a four-parameter logistic model and GraphPad Prism software (GraphPad Software, La Jolla, Calif.). All assessments were undertaken in duplicate evaluations and pooled during extraction process and subsequently injected as duplicates for LC-MS/MS analysis.
# Sequence of HSD17B13 (Q7Z5P4 20-300): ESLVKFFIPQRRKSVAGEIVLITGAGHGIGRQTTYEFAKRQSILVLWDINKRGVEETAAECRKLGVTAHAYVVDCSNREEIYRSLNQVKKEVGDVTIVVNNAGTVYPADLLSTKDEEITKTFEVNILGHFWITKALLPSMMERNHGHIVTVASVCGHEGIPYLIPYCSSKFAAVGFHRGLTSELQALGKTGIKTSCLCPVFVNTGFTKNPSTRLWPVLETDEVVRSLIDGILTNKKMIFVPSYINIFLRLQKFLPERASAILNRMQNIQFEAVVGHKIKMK
row,SMILES,IC50 [nM]
1,"O=C(Nc1ncsc1C(=O)NCC1CCC(F)(F)CC1)c1cc(Cl)c(O)c(Cl)c1 [Example 30, 4-(3,5-dichloro-4-hydroxybenzamido)-N-((4,4-difluorocyclohexyl)methyl) thiazole-5-carboxamide]",500 to 1000
2,"Cc1nsc(NC(=O)c2cc(Cl)c(O)c(Cl)c2)c1C(=O)NCc1ccccc1F [Example 31, 5-(3,5-dichloro-4-hydroxybenzamido)-N-(2-fluorobenzyl)-3-methylisothiazole-4-carboxamide]",100 to 500
3,"O=C(Nc1scnc1C(=O)NCc1ccccc1OC(F)(F)F)c1cc(Cl)c(O)c(Cl)c1 [Example 32, 5-(3,5-dichloro-4-hydroxybenzamido)-N-(2-(trifluoromethoxy)benzyl)thiazole-4-carboxamide]",≤ 100
4,"O=C(Nc1scnc1C(=O)NCc1ccccc1F)c1cc(Cl)c(O)c(Cl)c1 [Example 33, 5-(3,5-dichloro-4-hydroxybenzamido)-N-(2-fluorobenzyl)thiazole-4-carboxamide]",100 to 500
5,"O=C(Nc1scnc1C(=O)NCc1cccc(F)c1)c1cc(Cl)c(O)c(Cl)c1 [Example 34, 5-(3,5-dichloro-4-hydroxybenzamido)-N-(3-fluorobenzyl)thiazole-4-carboxamide]",≤ 100
6,"COc1ccccc1CCNC(=O)c1sccc1NC(=O)c1cc(Cl)c(O)c(Cl)c1 [Example 35, 3-(3,5-dichloro-4-hydroxybenzamido)-N-(2-methoxyphenethyl)thiophene-2-carboxamide]",≤ 100
7,"COc1ccccc1CCn1cnc2cccc(NC(=O)c3cc(Cl)c(O)c(Cl)c3)c2c1=O [Example 36, 3,5-dichloro-4-hydroxy-N-(3-(2-methoxyphenethyl)-4-oxo-3,4-dihydroquinazolin-5-yl)benzamide]",100 to 500
8,"O=C(Nc1cc(Cl)sc1C(=O)NCc1ccccc1OC(F)(F)F)c1cc(Cl)c(O)c(Cl)c1 [Example 37, 5-chloro-3-(3,5-dichloro-4-hydroxybenzamido)-N-(2-(trifluoromethoxy)benzyl) thiophene-2-carboxamide]",≤ 100
9,"O=C(Nc1sc(Cl)cc1C(=O)NCCc1ccccc1OC(F)(F)F)c1cc(Cl)c(O)c(Cl)c1 [Example 38, 5-chloro-2-(3,5-dichloro-4-hydroxybenzamido)-N-(2-(trifluoromethoxy)phenethyl) thiophene-3-carboxamide]",100 to 500
10,"O=C(Nc1cccc2ncn(Cc3nncs3)c(=O)c12)c1cc(Cl)c(O)c(Cl)c1 [Example 39, N-(3-((1,3,4-thiadiazol-2-yl)methyl)-4-oxo-3,4-dihydroquinazolin-5-yl)-3,5-dichloro-4-hydroxybenzamide]",1000 to 10000
11,"O=C(Nc1cccc2ncn(Cc3cccc(C(F)(F)F)c3)c(=O)c12)c1cc(Cl)c(O)c(Cl)n1 [Example 40, 4,6-dichloro-5-hydroxy-N-(4-oxo-3-(3-(trifluoromethyl)benzyl)-3,4-dihydroquinazolin-5-yl)picolinamide]",100 to 500
12,"C[C@@H](c1cccc(F)c1)n1cnc2cccc(NC(=O)c3cc(Cl)c(O)c(Cl)n3)c2c1=O [Example 41, 4,6-dichloro-N-{3-[(1S)-1-(3-fluorophenyl)ethyl]-4-oxo-3,4-dihydroquinazolin-5-yl}-5-hydroxypyridine-2-carboxamide]",≤ 100
13,"O=C(Nc1cccc2ncn(Cc3ccc(F)cc3)c(=O)c12)c1cc(Cl)c(O)c(Cl)n1 [Example 42, 4,6-dichloro-N-{3-[(4-fluorophenyl)methyl]-4-oxo-3,4-dihydroquinazolin-5-yl}-5-hydroxypyridine-2-carboxamide]",100 to 500
14,"O=C(Nc1cccc2ncn(Cc3ccccc3C(F)(F)F)c(=O)c12)c1cc(Cl)c(O)c(Cl)n1 [Example 43, 4,6-dichloro-5-hydroxy-N-(4-oxo-3-(2-(trifluoromethyl)benzyl)-3,4-dihydroquinazolin-5-yl)picolinamide]",≤ 100
15,"O=C(Nc1cccc2ncn(Cc3ccccc3F)c(=O)c12)c1cc(Cl)c(O)c(Cl)n1 [Example 44, 4,6-dichloro-N-(3-(2-fluorobenzyl)-4-oxo-3,4-dihydroquinazolin-5-yl)-5-hydroxypicolinamide]",≤ 100
16,"CN1CCN(c2ccc(Cn3cnc4cccc(NC(=O)c5cc(Cl)c(O)c(Cl)c5)c4c3=O)cc2)CC1 [Example 45, 3,5-dichloro-4-hydroxy-N-(3-(4-(4-methylpiperazin-1-yl)benzyl)-4-oxo-3,4-dihydroquinazolin-5-yl)benzamide]",1000 to 10000

row,SMILES,IC50 [nM]
1,"C[C@H](c1cccc(F)c1)n1cnc2cccc(NC(=O)c3cc(Cl)c(O)c(Cl)c3)c2c1=O [Example 47, (R)-3,5-dichloro-N-(3-(1-(3-fluorophenyl)ethyl)-4-oxo-3,4-dihydroquinazolin-5-yl)-4-hydroxybenzamide]",≤ 100
2,"N#Cc1cccc(Cn2cnc3cccc(NC(=O)c4cc(Cl)c(O)c(Cl)c4)c3c2=O)c1 [Example 48, 3,5-dichloro-N-(3-(3-cyanobenzyl)-4-oxo-3,4-dihydroquinazolin-5-yl)-4-hydroxybenzamide]",100 to 500
3,"O=C(Nc1cccc2ncn(Cc3cccc(OC(F)(F)F)c3)c(=O)c12)c1cc(Cl)c(O)c(Cl)n1 [Example 49, 4,6-dichloro-5-hydroxy-N-(4-oxo-3-(3-(trifluoromethoxy)benzyl)-3,4-dihydroquinazolin-5-yl)picolinamide]",100 to 500
4,"O=C(Nc1cccc2ncn(Cc3ccc(OC(F)(F)F)cc3)c(=O)c12)c1cc(Cl)c(O)c(Cl)n1 [Example 50, 4,6-dichloro-5-hydroxy-N-(4-oxo-3-(4-(trifluoromethoxy)benzyl)-3,4-dihydroquinazolin-5-yl)picolinamide]",100 to 500
5,"CS(=O)(=O)c1ccccc1Cn1cnc2cccc(NC(=O)c3cc(Cl)c(O)c(Cl)c3)c2c1=O [Example 51, 3,5-dichloro-4-hydroxy-N-(3-(2-(methylsulfonyl)benzyl)-4-oxo-3,4-dihydroquinazolin-5-yl)benzamide.]",100 to 500
6,"CC(C)(C)n1ccc(Cn2cnc3cccc(NC(=O)c4cc(Cl)c(O)c(Cl)c4)c3c2=O)n1 [Example 52, N-(3-((1-(tert-butyl)-1H-pyrazol-3-yl)methyl)-4-oxo-3,4-dihydroquinazolin-5-yl)-3,5-dichloro-4-hydroxybenzamide]",500 to 1000
7,"N#Cc1ccccc1Cn1cnc2cccc(NC(=O)c3cc(Cl)c(O)c(Cl)c3)c2c1=O [Example 53, 3,5-dichloro-N-(3-(2-cyanobenzyl)-4-oxo-3,4-dihydroquinazolin-5-yl)-4-hydroxybenzamide]",≤ 100
8,"O=C(Nc1cccc2ncnc(NCc3ccccc3OC(F)F)c12)c1cc(Cl)c(O)c(Cl)c1 [Example 54, 3,5-dichloro-N-[4-({[2-(difluoromethoxy)phenyl]methyl}amino)quinazolin-5-yl]-4-hydroxybenzamide]",1000 to 10000
9,"Cn1ccc(Cn2cnc3cccc(NC(=O)c4cc(Cl)c(O)c(Cl)c4)c3c2=O)n1 [Example 56, 3,5-dichloro-4-hydroxy-N-{3-[(1-methyl-1H-pyrazol-3-yl)methyl]-4-oxo-3,4-dihydroquinazolin-5-yl}benzamide]",500 to 1000
10,"CC(C)(C)CCn1cnc2cccc(NC(=O)c3cc(Cl)c(O)c(Cl)c3)c2c1=O [Example 57, 3,5-dichloro-N-(3-(3,3-dimethylbutyl)-4-oxo-3,4-dihydroquinazolin-5-yl)-4-hydroxybenzamide]",100 to 500
11,"O=C(Nc1cccc2ncn(Cc3ccc(OCCO)cc3)c(=O)c12)c1cc(Cl)c(O)c(Cl)c1 [Example 58, 3,5-dichloro-4-hydroxy-N-(3-(4-(2-hydroxyethoxy)benzyl)-4-oxo-3,4-dihydroquinazolin-5-yl)benzamide]",100 to 500
12,"CS(=O)(=O)c1ccc(Cn2cnc3cccc(NC(=O)c4cc(Cl)c(O)c(Cl)c4)c3c2=O)cc1 [Example 59, 3,5-dichloro-4-hydroxy-N-(3-(4-(methylsulfonyl)benzyl)-4-oxo-3,4-dihydroquinazolin-5-yl)benzamide]",1000 to 10000
13,"CS(=O)(=O)c1cccc(Cn2cnc3cccc(NC(=O)c4cc(Cl)c(O)c(Cl)c4)c3c2=O)c1 [Example 60, 3,5-dichloro-4-hydroxy-N-(3-(3-(methylsulfonyl)benzyl)-4-oxo-3,4-dihydroquinazolin-5-yl)benzamide.]",500 to 1000
14,"CC(C)(C)CCn1cnc2cccc(NC(=O)c3cc(Cl)c(O)c(Cl)n3)c2c1=O [Example 61, 4,6-dichloro-N-(3-(3,3-dimethylbutyl)-4-oxo-3,4-dihydroquinazolin-5-yl)-5-hydroxypicolinamide]",100 to 500
15,"CC(C)(C)n1ccc(Cn2cnc3cccc(NC(=O)c4cc(Cl)c(O)c(Cl)n4)c3c2=O)n1 [Example 62, N-(3-((1-(tert-butyl)-1H-pyrazol-3-yl)methyl)-4-oxo-3,4-dihydroquinazolin-5-yl)-4,6-dichloro-5-hydroxypicolinamide]",100 to 500
